We go through 90 molecules from a melting point compilation (Tetko et al.; mined from patent text by program, amines drawn as free bases though some values may be those of a salt).

SMILES strings stand for the structures.

For orientation: melting point means the temperature, or range, at which the solid turns liquid. For the molecule `Cc1nc(N)c2nc(C)n(CCOCc3ccccc3)c2c1C`, the melting point lay within 137 to 138 °C.

`CS(=O)c1ccc(-n2cnc3ccc(-c4nnc(SCc5cccc(C#N)c5)o4)cc32)cc1` (stereo not given) had a melting point of 152 to 153 °C. For `NS(=O)(=O)c1cc(C(=O)O)cc(OCc2ccsc2)c1-c1ccccc1` the value was 222 to 223 °C; for `O=C(c1ccc(C2CCCCC2)cc1)N1Cc2cccn2Cc2ncccc21`, 150 to 152 °C; for `COC(=O)CSc1nc(N2CCN(c3ccccn3)CC2)ncc1[N+](=O)[O-]`, 199 to 202 °C. The result for `COc1c(C)cc(C)c2c1C(=O)C1CCCCC21` (stereo not given) reads 72 to 74 °C; that for `O=C1c2ccccc2C(=O)N1CCc1cc(-c2ccc(F)cc2)no1`, 155 to 156 °C. `C/C(=N\OCCBr)[C@H]1CC[C@H]2[C@@H]3CCC4=CC(=O)CC[C@]4(C)[C@H]3CC[C@]12C`: the melting point fell in the range of 96 to 98 °C.

Turning to `N#Cc1cc(-c2cccs2)[nH]c1-c1cccs1`, the melting point is 202 to 204 °C. The result for `Cc1cc(I)cc(CO)c1N` reads 101 to 103 °C; that for `C=C(CC1(CC(=C)c2ccc(C(=O)Nc3ccccc3N)cc2)C(=O)N(C)C(=O)N(C)C1=O)c1ccc(C(=O)Nc2ccccc2N)cc1`, 161 to 163 °C; that for `CC/C=C\CCC(C#N)(C#N)Cc1ccc(Cl)cc1`, 44.8 °C. In turn, `CC1(C)Oc2ccc(C#N)cc2[C@@H](n2ncccc2=O)[C@@H]1O` (relative stereo) returned a melting point of 211 to 215 °C. With `Cc1cc(-c2ccc(Cl)cc2)cnc1N`, the melting point stood at 156 °C.

In turn, `CC(C)(C)c1ccc(C(=O)Nc2cn3cc(-n4cncn4)ccc3n2)cc1` returned a melting point of 274 to 276 °C.

The molecule `Cc1cc(C)c(/C=C2\C(=O)N(COC(=O)CCC(=O)O)c3ccccc32)[nH]1` yielded a melting point of 160 to 163 °C.

The molecule `OCc1ccc(OCc2csc(-c3ccccc3)n2)cc1` displayed a melting point of 145 to 146 °C. `COc1ccc(OC)c(C2(O)CCCCC2C(c2ccccc2)N(C)C)c1` (stereo not given): the melting point is > 240 °C. For the molecule `Cc1ncncc1C(=O)Nc1ccc(-n2nc(C3CC3)cc2C2CC2)cc1`, the melting point fell in the range of 89 to 95 °C. For `Nc1ncc(Cc2ccc3c(c2)CCCN3)c(N)n1` the value was 284 to 287 °C. Consider `Cc1ccc2c(c1)C1CN(CCCC#N)CCC1N2` (stereo not given), for which the melting point lay in the range of 160 to 165 °C. `Nc1nc(N)c2ncn(COCCOC=O)c2n1` returned a melting point of 238 to 240 °C. The result for `CCCCCCCCN1C(=O)c2c(Br)sc(Br)c2C1=O` reads 104 °C; that for `CCCCCCCCCCCCCCOc1ccc(NC(=O)c2cccc(CBr)c2)cc1`, 140 to 142 °C.

The molecule `CC(=O)c1cc(NC(=O)CCCC(=O)Nc2cc(C(C)=O)cc(C(C)=O)c2)cc(C(C)=O)c1` came in with a melting point of 200 to 203 °C. For `N#Cc1ccc(C2(CBr)OCCO2)cc1` the value was 92.4 °C; for `CC1(C)SC(CCCc2ccc(C(=O)O)cc2)N(CCC2(O)CCCCC2)C1=O` (stereo not given), 132 to 137 °C.

In turn, `CCOC(=O)C(CC(F)(F)CC(C)C1CCC2C3CC=C4CC(OC5CCCCO5)CCC4(C)C3CCC12C)C(=O)OCC` (stereo not given) had a melting point of 79 to 80 °C.

`COC(=O)c1cncn1C1c2cccc(Cl)c2CC1(C)C` (stereo not given) returned a melting point of 111 to 113 °C. `Cc1oc2c(C)c(C)c(OCc3ccccc3)c(C)c2c1CN1CCC[C@H]1CO`: the melting point lay in the range of 98 to 100 °C. The result for `COCC(=O)N(C)c1ccc(NC(=O)[C@H]2C[C@@H](O)CN2C(=O)Nc2ccc(Cl)cc2)cc1` reads 84 °C. For `CC1(C)Oc2ccc(Cl)cc2[C@@H](n2ccccc2=O)[C@@H]1O` (relative stereo) the value was 250 °C. For `O=C1C=C(Oc2ccc(C3CCCC3)cc2)C(O)O1` (stereo not given) the value was 101 to 103 °C; for `COc1ccccc1C1OC(=O)NC1=O` (stereo not given), 175 to 177 °C; for `CCOCc1nc2c(N)nc(C)c(C)c2n1CCCCS(=O)(=O)N(C)C`, 158 to 160 °C. `COC(=O)C=CC(=CN(C)C)C(=O)OC`: the melting point was determined as 62 °C. In turn, `CN1CCN(c2ccc3nc(N)c(C#N)c(O)c3c2)CC1` showed a melting point of 156 °C. In turn, `CNC(=O)[C@H]1O[C@@H](n2cnc3c(NCc4cc(Cl)ccc4OCC4OC(O)C(O)C(O)C4O)ncnc32)[C@H](O)[C@@H]1N` (stereo not given in full) returned a melting point of 212 to 218 °C.

Consider `CCCc1cccn1NS(=O)(=O)C1CCCC=C1C(=O)OCC` (stereo not given), for which the melting point is 66 to 68 °C. Regarding `O=C(O)c1ccc(F)c2c1C=CCO2`, the melting point was in the range of 224 to 226 °C.

In the case of `NS(=O)(=O)c1cc(C=O)co1`, the melting point is 281 to 284 °C. The result for `CCCC(Cl)C(=O)c1ccccc1` (stereo not given) reads 71 to 72 °C; that for `CNC(=O)N1CCC(Oc2c(F)c(F)c(F)c(F)c2F)CC1`, 107 to 110 °C; that for `COCc1c(S(C)(=O)=O)ccc(C(=O)C2C(=O)CCCC2=O)c1C`, 192 to 198 °C. In turn, `CCCCOc1ccc(-c2ccc(-c3ccc(-c4ccc(-c5ccc(OCCCC)cc5)s4)c4nsnc34)s2)cc1` had a melting point of 330 to 331 °C. Regarding `O=C(N1CCOCC1)N1Cc2c(-c3nc(C4CC4)cs3)ncn2-c2ccccc21`, the melting point lay within 193 to 194 °C. For `CCOC(=O)CCc1coc2c(O[Si](C)(C)C(C)(C)C)c3ccccc3c(C)c12` the value was 92.4 to 93.5 °C; for `CCOC(=O)c1[nH]c(=O)sc1Br`, 121 °C; for `NS(=O)(=O)c1cc2cc(CO)ccc2s1`, 174 to 176 °C. `CCC(=O)Nc1cccc(NC(=O)C2CC2)c1` had a melting point of 185 to 186 °C. The result for `CC(C)S(=O)(=O)C(C#N)=Cc1c(Cl)n(C)c2ccccc12` reads 141 °C; that for `CCOC(=O)c1ccc(-c2ccc(-c3ccc(C(F)(F)F)cc3)n2C)cc1`, 150 to 151 °C. `CC(C)N=C(NC#N)Nc1cc(C(F)(F)F)cc(C(F)(F)F)c1` yielded a melting point of 176 to 182 °C. For `COC(=O)c1c(C)n(-c2cc([N+](=O)[O-])c(C)cc2C)cc(Cl)c1=O` the value was 266 °C; for `Cc1cc(C2=NOC(c3cc(Cl)cc(Cl)c3)(C(F)(F)F)O2)ccc1C(=O)O` (stereo not given), 114 to 134 °C; for `Cc1ccc2c(c1)nnn2C(=O)N1CCOCC1`, 81 to 82 °C. The result for `Fc1ccc(-c2nc(CI)co2)cc1` reads 100 to 102 °C; that for `CNC(=S)NS(=O)(=O)c1cc2c(cc1OC)OCCC2CNC(=O)c1cc(Cl)ccc1OC` (single isomer, unassigned; (+)), 201 °C; that for `CC(C)(C)c1cc(C2N[C@H](C(=O)O)CS2)cc(C(C)(C)C)c1O` (stereo not given in full), 163 to 165 °C.

In turn, `Cc1cc(O)c2c(c1O)C(=O)c1ccccc1C2=O` came in with a melting point of 177 to 178 °C. For `Cc1nn(-c2c(Cl)cc(C(F)(F)F)cc2Cl)nc1SC#N` the value was 115 to 117 °C; for `O=C1CCCN(C(=O)c2ccc([N+](=O)[O-])cc2)c2cccnc21`, 188 to 190 °C; for `C#Cc1c(N)nc(-c2ccc(Cl)c(OC)c2F)nc1C(=O)OC`, 174 to 176 °C. Take `CCC(=C[N+](=O)[O-])NCc1ccc(Cl)nc1`: the melting point lay within 95 to 98 °C. For `CCOC(=O)COc1cccc(NC(=O)NC2N=C(c3ccccc3F)c3ccccc3N(CC(=O)N3CC4CCC(CC4)C3)C2=O)c1` (racemic), the melting point was 156 to 158 °C. The result for `CC(C)(NC(=O)C1=C(C(=O)Nc2cc(OC3CCCC3)c(Cl)cc2F)CCCC1)c1cccc(F)c1` reads 231 to 234 °C; that for `COc1ccc(NC(=O)c2ccc(Br)s2)cc1N1CCN(C)CC1`, 114 to 115 °C. Take `CC(C)(C)NC(=O)c1ncccc1CCc1cccc(Cl)c1`: the melting point was in the range of 45 to 46 °C. The result for `Cc1cccc(C)c1N(C(C)CN1C(=O)c2ccccc2C1=O)S(C)(=O)=O` (stereo not given) reads 188 to 190 °C.

Turning to `COc1cc2cc3c4c(cccc4c2cc1OC)C(=O)OC3=O`, the melting point is > 324 °C.

In turn, `COc1cccc(C(=O)O)c1CCc1cccc(Cl)c1` showed a melting point of 91 °C.

The molecule `N#Cc1cccc(C2=Nc3ccc(C#CC4=CCNCC4)cc3NC(=O)C2)c1` registered a melting point of 184 °C.

Molecule `COC(=O)c1c(I)ccc2c(=O)c3ccccc3[nH]c12` came in with a melting point of 202 to 204 °C. `CC1(C)NC(=O)N(c2ccc([N+](=O)[O-])cc2C(F)(F)F)C1=O` showed a melting point of 175 to 176 °C.

In the case of `COCCc1cc(N2CCN(C)CC2)n2nc(SC)c(S(=O)(=O)c3ccccc3)c2n1`, the melting point fell in the range of 160 to 161 °C. Molecule `Nc1ccc(Cl)c(O)c1` displayed a melting point of 115 to 117 °C.

`Brc1ccc2c(c1)C1(OCCCO1)C1=NCCCN12` registered a melting point of 145 to 149 °C. The molecule `CCN(CC)CCOc1ccc2cc3ccc(OCCN(CC)CC)cc3nc2c1` registered a melting point of 94 to 95 °C. `OCc1ccc2ccc3cccc4ccc1c2c34` showed a melting point of 125 to 126 °C.

On to `NS(=O)(=O)c1ccc(-c2ccccc2-c2ccc(C(F)(F)F)cc2)cc1`, for which the melting point worked out at 188 °C. Molecule `O=C1NCCN=C1c1ccc(F)cc1` gave a melting point of 118 to 120 °C.

On to `CS(=O)(=O)c1ccc(/C(=C2\CCN(CCO)C2=O)c2ccc(Cl)cc2)cc1`, for which the melting point is 187 to 188 °C. For `Cc1cccc(C(=O)CCl)c1O` the value was 65 to 66 °C. The molecule `O=C(OC(Cn1ccnc1)CS(=O)(=O)c1ccccc1)c1ccc(Cl)cc1Cl` (stereo not given) showed a melting point of 106 to 109 °C. For `Cc1c(F)c(N2CCNCC2)c(F)c2c1c(=O)c(C(=O)O)cn2C1CC1`, the melting point lay in the range of 205 to 206 °C.

Turning to `Cc1ccccc1-n1c(-c2sc(Nc3ccc(Cl)cc3)nc2-c2ccccc2)nc2ccccc2c1=O`, the melting point is > 275 °C. For `COC(=O)CCc1cc2nc(Cl)ccc2n1S(=O)(=O)c1cc(OC)ccc1OC` the value was 127 °C; for `CCOC(=O)c1c(Cl)nc(-c2ccccc2)c([N+](=O)[O-])c1C(=O)OCC`, 65 to 66 °C; for `CC1(C)CCC(C)(C)c2cc(C(O)CCC(=O)O)ccc21` (stereo not given), 10 °C. `CC(=O)OCC1CC(Nc2cc(Cl)c(Cl)cc2N)C(OC(C)=O)C1OC(C)=O` (stereo not given) showed a melting point of 124 to 125 °C.
